From BindingDB's records for doi:10.1016/j.bmcl.2013.02.064 (Toronto General Research Institute, 2013)

Assay: Inhibition of FCgamma receptor in human PBMC assessed as inhibition of opsonized RBC phagocytosis incubated for 1 hr prior to RBC addition measured after 2 hrs by monocyte monolayer assay

IC50: 100 nM
SMILES: Cc1cc(SSc2cc(C)nn2-c2ccccc2)n(-c2ccccc2)n1
